Where two headings read alike, the source gives them in different places.
Test: Levels of PCB 95 and its hydroxylated metabolites in adipose, blood, brain and liver 24 h after a single oral dose (GC-MS/MS)
Type: in vivo, mice
Settings: 1 mg/kg, single oral PCB 95 1.0 mg/kg, mean ± SD; for concentration at 24 h: mouse, po
Experimental: Adult male and female wild-type (WT) C57BL/6 mice, KO, and KI mice (4 months old) were exposed to racemic PCB 95. Mice were randomly assigned to exposure groups and received a single oral dose of PCB 95 (1.0 mg/kg) in stripped corn oil (10 mL/kg; lot# A0395699; cat# 801-03-7; Fisher Scientific) via gavage (5–7 mice per group). Control animals received corn oil alone (1–3 mice per group) to assess the potential background contamination with PCB 95. Animals were euthanized 24 h after PCB 95 exposure. Blood was collected from the heart and placed in pre-weighed glass vials with 80 μL of ethylenediaminetetraacetic acid solution (EDTA, 7.5%, w/w). The amount of blood in each vial was determined by weight prior to sample extraction. Adipose, brain, and liver tissues were excised from each animal and individually wrapped in aluminum foil. Samples were stored at −80 °C in separate plastic bags and shipped on dry ice to the University of Iowa for analysis.
PCB 95 and its hydroxylated metabolites were extracted from adipose (0.06 ± 0.01 g), brain (0.19 ± 0.03 g) and liver tissues (0.49 ± 0.07 g) by pressurized liquid extraction (PLE) with a Dionex ASE200 system (Dionex, Sunnyvale, CA, USA).[45] Tissues were homogenized with 2 g of pre-cleaned diatomaceous earth (Thermo Fisher Scientific, Pittsburgh, PA, USA) and placed in extraction cells loaded with 10 g of pre-extracted Florisil (60–100 mesh, Fisher Scientific, Pittsburgh, PA, USA). Tissue samples were then spiked with recovery standards [50 ng of PCB 117 in 50 μL of isooctane and 50 ng of 4′-159 (2′,3,3′,5,5′,6′-hexachlorobiphenyl-4-ol) in 50 μL of methanol]. For ongoing precision recovery (OPR) samples; recovery standard, internal standard, PCB 95, and its metabolites (50 ng each) were spiked to the method blank (DE only) and tissues from control animals. Cells were extracted with hexane–dichloromethane–methanol (48:43:9, v/v/v) at 100 °C and 1500 psi (10 MPa), with preheat equilibration for 6 min, 60% of cell flush volume, and 1 static cycle of 5 min. The extracts were concentrated to approximately 1 mL with a TurboVap II (Biotage, LLC, NC, USA) and transferred to new glass tubes with 1 mL of hexane. The solvent was evaporated to near dryness under a gentle stream of nitrogen, and extracts were redissolved in 1 mL of hexane.
PCB 95 and its hydroxylated metabolites were extracted from whole blood (0.45 ± 0.13 g) using a published liquid–liquid extraction procedure.[29] Briefly, blood samples were thawed, and 3 mL of aqueous 1% KCl solution was added to each sample. Recovery standards (50 ng of PCB 117 in 50 μL of isooctane and 50 ng of 4′-159 in 50 μL of methanol) were spiked to all samples, including OPR samples, before extraction. Subsequently, 1 mL of 6 M HCl, 5 mL of 2-propanol, and 5 mL of 1:1 hexane–MTBE mixture (v/v) were added to the blood samples. The samples were inverted for 5 min and centrifuged at 1690g for 5 min to facilitate the phase separation. Next, the organic phases were transferred to new glass tubes, and the aqueous phases were re-extracted with 3 mL of hexane. Next, three mL of aqueous 1% KCl were added to the combined organic extracts, and samples were inverted and centrifuged as described above. The organic phase was transferred to a new tube, and the aqueous phase was re-extracted with 3 mL of hexane. The combined organic extracts were evaporated to near dryness using a Savant SpeedVac SPD210 (Thermo Scientific, Waltham, MA, US), and each sample was reconstituted with 0.5 mL of hexane.
Five drops of methanol and 0.5 mL of diazomethane (CH2N2; about 0.1 mmol) in diethyl ether were added to the tissue or blood extracts to derivatize the OH-PCBs.[45] Diazomethane rapidly converts the phenolic hydroxyl groups of OH-PCBs to methoxy groups (i.e., −OH → −OCH3). All samples were stored at 4 °C for approximately 16 h. Excess diazomethane evaporated under a gentle stream of nitrogen in a fume hood, followed by adding 0.5 mL of hexane. […]

[1] = female, C57BL/6 (wild-type), adipose, FWT, female wildtype mice, read-out: Levels in adipose
[2] = female, C57BL/6 (wild-type), liver, FWT, female wildtype mice, read-out: Levels in liver
[3] = female, C57BL/6 (wild-type), whole blood, FWT, female wildtype mice, read-out: Levels in blood
[4] = female, CYP2A6-humanized (KI), liver, FKI, female CYP2A6-humanized mice, read-out: Levels in liver
[5] = female, CYP2A6-humanized (KI), whole blood, FKI, female CYP2A6-humanized mice, read-out: Levels in blood
[6] = female, Cyp2abfgs-null (KO), liver, FKO, female Cyp2abfgs-null mice, read-out: Levels in liver
[7] = female, Cyp2abfgs-null (KO), whole blood, FKO, female Cyp2abfgs-null mice, read-out: Levels in blood
[8] = male, C57BL/6 (wild-type), liver, MWT, male wildtype mice, read-out: Levels in liver
[9] = male, C57BL/6 (wild-type), whole blood, MWT, male wildtype mice, read-out: Levels in blood
[10] = male, CYP2A6-humanized (KI), liver, MKI, male CYP2A6-humanized mice, read-out: Levels in liver
[11] = male, CYP2A6-humanized (KI), whole blood, MKI, male CYP2A6-humanized mice, read-out: Levels in blood
[12] = male, Cyp2abfgs-null (KO), adipose, MKO, male Cyp2abfgs-null mice, read-out: Levels in adipose
[13] = male, Cyp2abfgs-null (KO), liver, MKO, male Cyp2abfgs-null mice, read-out: Levels in liver
[14] = male, Cyp2abfgs-null (KO), whole blood, MKO, male Cyp2abfgs-null mice, read-out: Levels in blood
[15] = female, C57BL/6 (wild-type), brain, FWT, female wildtype mice, read-out: Levels in brain
[16] = female, CYP2A6-humanized (KI), adipose, FKI, female CYP2A6-humanized mice, read-out: Levels in adipose
[17] = female, Cyp2abfgs-null (KO), adipose, FKO, female Cyp2abfgs-null mice, read-out: Levels in adipose
[18] = male, C57BL/6 (wild-type), adipose, MWT, male wildtype mice, read-out: Levels in adipose
[19] = male, CYP2A6-humanized (KI), adipose, MKI, male CYP2A6-humanized mice, read-out: Levels in adipose

| SMILES | concentration at 24 h [1] | concentration at 24 h [2] | concentration at 24 h [3] | concentration at 24 h [4] | concentration at 24 h [5] | concentration at 24 h [6] | concentration at 24 h [7] | concentration at 24 h [8] | concentration at 24 h [9] | concentration at 24 h [10] | concentration at 24 h [11] | concentration at 24 h [12] | concentration at 24 h [13] | concentration at 24 h [14] | concentration at 24 h [15] | concentration at 24 h [16] | concentration at 24 h [17] | concentration at 24 h [18] | concentration at 24 h [19] | also measured |
| --- | --- | --- | --- | --- | --- | --- | --- | --- | --- | --- | --- | --- | --- | --- | --- | --- | --- | --- | --- | --- |
| Oc1c(Cl)cc(Cl)c(-c2cc(Cl)ccc2Cl)c1Cl [3-103, 2,2',4,5',6-pentachlorobiphenyl-3-ol] | 0.7 ng/g | 1.2 ± 0.4 ng/g | 1 ± 0.5 ng/g | 1 ± 0.4 ng/g | 1.1 ± 1.2 ng/g | 1.8 ± 0.4 ng/g | 0.8 ± 0.3 ng/g | 0.7 ± 0.3 ng/g | 0.6 ± 0.2 ng/g | 0.6 ± 0.2 ng/g | 0.4 ± 0.1 ng/g | 1.5 ± 0.7 ng/g | 1 ± 0.4 ng/g | 0.5 ± 0.1 ng/g | – | – | – | – | – | – |
| Oc1cc(Cl)c(-c2c(Cl)ccc(Cl)c2Cl)cc1Cl [4'-95] | 1.4 ± 0.6 ng/g | 3.7 ± 1.8 ng/g | 2.2 ± 1 ng/g | 4.5 ± 2.6 ng/g | 3.4 ± 2.5 ng/g | 8.5 ± 3.9 ng/g | 2.2 ± 1.2 ng/g | 5.7 ± 2.8 ng/g | 3.5 ± 1.1 ng/g | 3.8 ± 2.1 ng/g | 1.3 ± 0.7 ng/g | 2.5 ± 1.7 ng/g | 7.7 ± 3.6 ng/g | 2.8 ± 0.9 ng/g | 0.3 ng/g | 1.1 ± 0.3 ng/g | 1.5 ± 0.4 ng/g | 2.1 ± 0.8 ng/g | 1.1 ± 0.2 ng/g | Levels in liver (FKO, female Cyp2abfgs-null mice): 8.5 ng/g tissue; concentration at 24 h (male, Cyp2abfgs-null (KO), brain, MKO, male Cyp2abfgs-null mice, read-out: Levels in brain): 0.2 ng/g |
| Oc1c(O)c(Cl)c(-c2cc(Cl)ccc2Cl)c(Cl)c1Cl [4,5-95, 2,2',3,5',6-pentachlorobiphenyl-4,5-diol] | 0.9 ± 0.2 ng/g | 2.2 ± 0.9 ng/g | 5.2 ± 1.9 ng/g | 1.7 ± 0.3 ng/g | 5.2 ± 4.8 ng/g | 1.2 ± 0.7 ng/g | 1.4 ± 0.7 ng/g | 3.4 ± 1.2 ng/g | 9.1 ± 2.6 ng/g | 1.7 ± 0.8 ng/g | 3.6 ± 1.3 ng/g | 1.9 ± 0.8 ng/g | 2.8 ± 1.6 ng/g | 5.3 ± 3.8 ng/g | – | 1 ± 0.6 ng/g | 1.6 ng/g | 0.9 ± 0.2 ng/g | 0.7 ± 0.2 ng/g | – |
| Oc1cc(Cl)c(-c2cc(Cl)ccc2Cl)c(Cl)c1Cl [4-95, 2,2',3,5',6-pentachlorobiphenyl-4-ol] | 0.4 ± 0.1 ng/g | 1 ± 0.6 ng/g | 1.5 ± 0.5 ng/g | 0.4 ± 0.1 ng/g | 1 ± 0.8 ng/g | 0.4 ± 0.3 ng/g | 0.4 ± 0.3 ng/g | 2 ± 0.8 ng/g | 3.2 ± 1.1 ng/g | 0.8 ± 0.5 ng/g | 1.1 ± 0.6 ng/g | 0.4 ± 0.1 ng/g | 1.1 ± 0.9 ng/g | 1.5 ± 0.8 ng/g | – | – | – | 0.5 ± 0.3 ng/g | 0.3 ng/g | Levels in liver (FKI, female CYP2A6-humanized mice): 0.4 ng/g tissue |
| Oc1cc(Cl)c(Cl)c(-c2cc(Cl)ccc2Cl)c1Cl [5-95, 2,2',3,5',6-pentachlorobiphenyl-5-ol] | 1.3 ± 1.1 ng/g | 3.8 ± 1.6 ng/g | 0.9 ± 0.6 ng/g | 5.5 ± 3.1 ng/g | 1.9 ± 1.6 ng/g | 6.2 ± 1.1 ng/g | 0.7 ± 0.3 ng/g | 3.3 ± 1.6 ng/g | 1.1 ± 0.3 ng/g | 3.3 ± 2.1 ng/g | 0.6 ± 0.3 ng/g | 3.5 ± 4.8 ng/g | 3.7 ± 1.6 ng/g | 0.7 ± 0.3 ng/g | 0.25 ± 0.02 ng/g | 1.1 ± 0.4 ng/g | 1 ± 0.4 ng/g | 1.8 ± 1 ng/g | 0.8 ± 0.5 ng/g | – |

From paper PMC10445290, “Enantiomeric Fractions Reveal Differences in the Atropselective Disposition of 2,2′,3,5′,6-Pentachlorobiphenyl (PCB 95) in Wildtype, Cyp2abfgs-Null, and CYP2A6-Humanized Mice” (Chemical Research in Toxicology, 2023)
